Test results from PubChem BioAssay (NCI).
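In this assay, cells in 96-well plates receive the compound at five concentrations for 48 hours. Endpoints are linearly interpolated between the surrounding concentrations. At the TGI there is no net growth.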

Tests used:
Assay in all cases: DTP human tumour cell line panel, 48 h
[1] = system: 786-0 renal
[2] = system: A498 renal
[3] = system: A549 NSCLC
[4] = system: BT-549 breast
[5] = system: CAKI-1 renal
[6] = system: CCRF-CEM leukemia
[7] = system: COLO 205 colon
[8] = system: DU-145 prostate
[9] = system: EKVX NSCLC
[10] = system: HCT-116 colon
[11] = system: HCT-15 colon
[12] = system: HL-60(TB) leukemia
[13] = system: HOP-62 NSCLC
[14] = system: HOP-92 NSCLC
[15] = system: HS 578T breast
[16] = system: HT29 colon
[17] = system: IGROV1 ovarian
[18] = system: K-562 leukemia
[19] = system: KM12 colon
[20] = system: LOX IMVI melanoma
[21] = system: M14 melanoma
[22] = system: MALME-3M melanoma
[23] = system: MCF7 breast
[24] = system: MDA-MB-231 breast
[25] = system: MDA-MB-435
[26] = system: MDA-N
[27] = system: MOLT-4 leukemia
[28] = system: NCI-H226 lung
[29] = system: NCI-H23 lung
[30] = system: NCI-H522 lung
[31] = system: NCI/ADR-RES ovarian
[32] = system: OVCAR-3 ovarian
[33] = system: OVCAR-5 ovarian
[34] = system: OVCAR-8 ovarian
[35] = system: PC-3 prostate
[36] = system: RPMI-8226 leukemia
[37] = system: SF-268 CNS
[38] = system: SF-295 CNS
[39] = system: SF-539 CNS
[40] = system: SK-MEL-2 melanoma
[41] = system: SK-MEL-28 melanoma
[42] = system: SK-MEL-5 melanoma
[43] = system: SK-OV-3 ovarian
[44] = system: SN12C renal
[45] = system: SNB-75 CNS
[46] = system: SR leukemia
[47] = system: SW-620 colon
[48] = system: T-47D breast
[49] = system: TK-10 renal
[50] = system: U251 CNS
[51] = system: UACC-257 melanoma
[52] = system: UACC-62 melanoma
[53] = system: UO-31 renal
[54] = system: ACHN renal
[55] = system: OVCAR-4 ovarian
[56] = system: RXF 393 renal
[57] = system: SNB-19 CNS

SMILES: O=C1c2ccccc2-c2c1c1ccccc1c(=O)n2Cc1ccco1
- TGI [1]: > 100 µM
- TGI [2]: > 100 µM
- TGI [3]: > 100 µM
- TGI [4]: > 100 µM
- TGI [5]: > 100 µM
- TGI [6]: > 100 µM
- TGI [7]: > 100 µM
- TGI [8]: > 100 µM
- TGI [9]: > 100 µM
- TGI [10]: > 100 µM
- TGI [11]: > 100 µM
- TGI [12]: > 100 µM
- TGI [13]: > 100 µM
- TGI [14]: > 100 µM
- TGI [15]: > 100 µM
- TGI [16]: > 100 µM
- TGI [17]: > 100 µM
- TGI [18]: > 100 µM
- TGI [19]: > 100 µM
- TGI [20]: > 100 µM
- TGI [21]: > 100 µM
- TGI [22]: > 100 µM
- TGI [23]: > 100 µM
- TGI [24]: > 100 µM
- TGI [25]: > 100 µM
- TGI [26]: > 100 µM
- TGI [27]: > 100 µM
- TGI [28]: > 100 µM
- TGI [29]: > 100 µM
- TGI [30]: > 100 µM
- TGI [31]: > 100 µM
- TGI [32]: > 100 µM
- TGI [33]: > 100 µM
- TGI [34]: > 100 µM
- TGI [35]: > 100 µM
- TGI [36]: > 100 µM
- TGI [37]: > 100 µM
- TGI [38]: > 100 µM
- TGI [39]: > 100 µM
- TGI [40]: > 100 µM
- TGI [41]: > 100 µM
- TGI [42]: > 100 µM
- TGI [43]: > 100 µM
- TGI [44]: > 100 µM
- TGI [45]: > 100 µM
- TGI [46]: > 100 µM
- TGI [47]: > 100 µM
- TGI [48]: > 100 µM
- TGI [49]: > 100 µM
- TGI [50]: > 100 µM
- TGI [51]: > 100 µM
- TGI [52]: > 100 µM
- TGI [53]: > 100 µM

SMILES: CN1C2CCC1CC(OC(c1ccccc1)c1ccccc1)C2 (centres undefined)
- TGI [1]: 27 µM
- TGI [2]: 28.4 µM
- TGI [3]: 39.7 µM
- TGI [54]: 59.2 µM
- TGI [4]: 41.2 µM
- TGI [5]: > 100 µM
- TGI [6]: 29.9 µM
- TGI [7]: 23.7 µM
- TGI [8]: > 100 µM
- TGI [9]: 91.2 µM
- TGI [10]: 25.1 µM
- TGI [11]: 78.8 µM
- TGI [12]: 36.2 µM
- TGI [13]: 43 µM
- TGI [14]: 29.1 µM
- TGI [15]: 33.5 µM
- TGI [16]: 23 µM
- TGI [17]: 38.8 µM
- TGI [18]: 34.5 µM
- TGI [19]: 37.9 µM
- TGI [20]: 29.4 µM
- TGI [21]: 27.9 µM
- TGI [22]: 28.1 µM
- TGI [23]: 26.9 µM
- TGI [24]: 32.7 µM
- TGI [25]: 29.8 µM
- TGI [26]: 28.8 µM
- TGI [27]: 73.6 µM
- TGI [28]: 72.6 µM
- TGI [29]: 83.3 µM
- TGI [30]: 28.1 µM
- TGI [31]: 34.3 µM
- TGI [32]: 47 µM
- TGI [55]: > 100 µM
- TGI [33]: 41.2 µM
- TGI [34]: 29.9 µM
- TGI [35]: 37.3 µM
- TGI [36]: 33.4 µM
- TGI [56]: 42.3 µM
- TGI [37]: 41.5 µM
- TGI [38]: 23.5 µM
- TGI [40]: 32.1 µM
- TGI [41]: 27.8 µM
- TGI [42]: 29.1 µM
- TGI [43]: 47.1 µM
- TGI [44]: > 100 µM
- TGI [57]: 48.3 µM
- TGI [45]: 72.8 µM
- TGI [46]: 42 µM
- TGI [47]: 27.6 µM
- TGI [48]: 80.1 µM
- TGI [49]: 44.5 µM
- TGI [50]: 28.9 µM
- TGI [51]: 26.6 µM
- TGI [52]: 30.4 µM
- TGI [53]: 40.1 µM
